Test results reported in DBAASP.
In brackets after ≈: the same amount, converted by molar mass.

Assays:
Test in all cases: ≥ marks a high value that may be exact or a test limit, other limits are often not marked, values filed in µg/mL are converted to µM
[1] = tested on: Staphylococcus aureus ATCC 6538
[2] = tested on: Escherichia coli DH5alpha
[3] = tested on: Micrococcus luteus ATCC 4698
[4] = tested on: Staphylococcus epidermidis ATCC 12228
[5] = tested on: Candida albicans NCPF 1467
[6] = tested on: Escherichia coli NCTC 10418
[7] = tested on: Staphylococcus aureus NCTC 10788
[8] = tested on: Salmonella enterica subsp. enterica serovar Typhimurium ATCC 14028
[9] = tested on: Klebsiella pneumoniae ATCC 10031

SMILES	MIC [5]	MIC [6]	MIC [7]	further results
CC(C)C[C@H](NC(=O)[C@H](CC(C)C)NC(=O)[C@H](CCCCN)NC(=O)[C@H](CO)NC(=O)[C@@H](NC(=O)[C@H](C)NC(=O)[C@H](CCCCN)NC(=O)[C@H](Cc1ccccc1)NC(=O)[C@H](CC(C)C)NC(=O)[C@H](C)NC(=O)CNC(=O)[C@H](CC(C)C)NC(=O)[C@@H](N)Cc1ccccc1)C(C)C)C(=O)O [FLGALFKAVSKLL]	–	–	–	MIC [1]: 8.53 µM (≈ 12 µg/mL); MIC [2]: 25.6 µM (≈ 36 µg/mL); MIC [3]: 4.98 µM (≈ 7 µg/mL); MIC [4]: 15.6 µM (≈ 22 µg/mL)
CSCC[C@H](NC(=O)CN)C(=O)N[C@@H](CCCN=C(N)N)C(=O)N1CCC[C@H]1C(=O)N1CCC[C@H]1C(=O)N[C@@H](Cc1c[nH]c2ccccc12)C(=O)N[C@@H](Cc1ccccc1)C(N)=O [GMRPPWF]	≥ 144 µM	≥ 575 µM	≥ 288 µM	–
NCCCC[C@@H]1NC(=O)[C@H](Cc2c[nH]c3ccccc23)NC(=O)CNC(=O)CNC(=O)[C@@H](N)CSSC[C@@H](C(=O)O)NC(=O)[C@H](CCCN=C(N)N)NC(=O)[C@H](CCCCN)NC(=O)[C@H](CCCN=C(N)N)NC1=O [CGGWKRKRC]	–	–	–	MIC [3]: 0.8 µM (≈ 0.873 µg/mL)
CC[C@H](C)[C@@H]1NC(=O)[C@H](CCCCN)NC(=O)[C@@H](NC(=O)[C@@H](NC(=O)[C@@H](NC(=O)[C@@H](NC(=O)[C@@H]2CCCN2C(=O)[C@H](CC(C)C)NC(=O)[C@H](Cc2ccccc2)NC(=O)[C@H](CC(N)=O)NC(=O)[C@H](C)NC(=O)[C@H](C)NC(=O)[C@H](CC(C)C)NC(=O)CNC(=O)[C@H](C)NC(=O)[C@H](CC(C)C)NC(=O)[C@@H](N)CC(C)C)[C@@H](C)O)[C@@H](C)CC)[C@@H](C)CC)CSSC[C@@H](C(=O)O)NC(=O)[C@H](CCCCN)NC(=O)[C@H](Cc2ccc(O)cc2)NC(=O)[C@H](CO)NC1=O [LLAGLAANFLPTIICKISYKC]	–	–	–	MIC [2]: ≥ 44.4 µM; MIC [8]: > 44.4 µM; MIC [9]: ≥ 44.4 µM

Now from value to compound, other results behind:

MIC [5]	MIC [6]	MIC [7]	SMILES	further results
31.1 µM (≈ 64 µg/mL)	≥ 249 µM	15.5 µM (≈ 32 µg/mL)	CC[C@H](C)[C@H](NC(=O)CNC(=O)[C@@H](NC(=O)[C@H](C)NC(=O)[C@@H](NC(=O)[C@H](Cc1cnc[nH]1)NC(=O)[C@@H]1CCCN1C(=O)[C@@H](NC(=O)[C@H](CCSC)NC(=O)[C@H](CO)NC(=O)[C@H](Cc1ccccc1)NC(=O)[C@@H](N)Cc1ccccc1)[C@@H](C)CC)[C@@H](C)CC)[C@@H](C)O)C(=O)N[C@@H](C)C(=O)N[C@@H](CO)C(=O)N[C@@H](CC(C)C)C(=O)N[C@H](C(=O)N[C@@H](CCCCN)C(=O)N[C@@H](CC(N)=O)C(=O)N[C@@H](CC(C)C)C(N)=O)C(C)C [FFSMIPHIATGIASLVKNL]	–
≥ 32.3 µM	≥ 258 µM	16.2 µM (≈ 32 µg/mL)	CC[C@H](C)[C@H](NC(=O)CNC(=O)CNC(=O)[C@H](C)NC(=O)[C@@H](NC(=O)[C@H](Cc1cnc[nH]1)NC(=O)[C@@H]1CCCN1C(=O)[C@@H](NC(=O)[C@H](CCSC)NC(=O)[C@H](CO)NC(=O)[C@H](CC(C)C)NC(=O)[C@@H](N)Cc1ccccc1)[C@@H](C)CC)[C@@H](C)CC)C(=O)N[C@@H](C)C(=O)N[C@@H](CO)C(=O)N[C@@H](CC(C)C)C(=O)N[C@H](C(=O)N[C@@H](CCCCN)C(=O)N[C@@H](CC(N)=O)C(=O)N[C@@H](CC(C)C)C(N)=O)C(C)C [FLSMIPHIAGGIASLVKNL]	–
15.9 µM (≈ 32 µg/mL)	≥ 254 µM	7.93 µM (≈ 16 µg/mL)	CC[C@H](C)[C@H](NC(=O)[C@H](C)NC(=O)[C@H](CO)NC(=O)[C@@H](NC(=O)[C@H](CC(C)C)NC(=O)CNC(=O)[C@H](C)NC(=O)[C@@H](NC(=O)[C@@H](NC(=O)[C@H](CO)NC(=O)[C@@H]1CCCN1C(=O)[C@@H](NC(=O)[C@H](CC(C)C)NC(=O)[C@H](CO)NC(=O)[C@H](Cc1ccccc1)NC(=O)[C@H](CC(C)C)NC(=O)[C@@H](N)Cc1ccccc1)[C@@H](C)CC)C(C)C)[C@@H](C)CC)C(C)C)C(=O)N[C@@H](CCCN=C(N)N)C(=O)N[C@@H](CC(N)=O)C(N)=O [FLFSLIPSVIAGLVSAIRN]	–
